What all share (experiment): NCI tumour cell line growth inhibition, 48 h
Test [1] deals with T-47D breast.
The test system of test [2] is MOLT-4 leukemia.
The test system of test [3] is UACC-257 melanoma.
In test [4] the test system is SK-MEL-28 melanoma.
The test system of test [5] is RPMI-8226 leukemia.
In test [6] the test system is A549 NSCLC.
For test [7], the system named is U251 CNS.
Test [8] relates to SF-539 CNS.
Test [9] deals with M14 melanoma.
The test system of test [10] is KM12 colon.

Several values for one entry are separate records, joined by “and”; a condition that tells them apart may be missing. Equal entries are not always repeated.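 Results reflect a 48-hour exposure of cells in 96-well plates to compound at five concentrations. GI50 marks 50% less growth. At the TGI there is no net growth.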

For the molecule `COc1cccc(-c2nc3sccn3c2-c2ccnc(NCCCNS(=O)(=O)c3ccccc3)c2)c1`, the GI50 was 1.73 µM in [1]; 2.25 µM in [2]; 3.57 µM in test [3]; 3.59 µM in [4]; 1.61 µM in test [5]; 3.45 µM in [6]. Moreover, the GI50 in [7] is 4.55 µM; in test [8], 5.43 µM; in [9], 3.36 µM; in test [10], 2.97 µM. Besides, the TGI is 6.24 µM in [1]; 7.04 µM in [2]; greater than 100 µM in [3]; greater than 100 µM in test [4]; 4.26 µM in test [5]; greater than 100 µM in test [6]. The TGI in test [7], in test [8], in test [9] and in [10] was greater than 100 µM throughout.

Consider `C=CC(=O)Nc1cc2c(Nc3ccc(F)c(Cl)c3)ncnc2cc1C#CC(C)(C)N1CCN(C)CC1`, for which the GI50 in [1] was 0.752 µM; in test [2], 1.05 µM; in test [3] it was 3.96 µM; in test [4], 3.1 µM; in [5], 1.77 µM; in [6] it was 2.64 µM. Besides, the GI50 in [7] was 2.66 µM; in [8], 1.48 µM; in test [9] it was 2.56 µM; in test [10], 2.36 µM. Further, the TGI in test [1] amounted to 5.32 µM; in [2] it was 5.16 µM; in [3] it was 5.56 µM; in [4] it was 5.67 µM; in test [5], 5.17 µM; in [7], 5.48 µM. For the same molecule, the TGI came out at 2.99 µM in [8], 5.71 µM in [9] and 5.75 µM in test [10].

For the molecule `N#[N+]c1ccc(Nc2ccccc2)cc1`, the GI50 in test [1], in test [2], in test [3], in test [4], in [5] and in test [6] was greater than 50 µg/mL throughout. Also, the GI50 in test [7] was greater than 50 µg/mL; in test [8], greater than 50 µg/mL; in test [9], greater than 50 µg/mL; in test [10], 3.11 µg/mL. For the same molecule, the TGI in test [1], in [2], in [3], in test [4], in [5] and in [6] was greater than 50 µg/mL in each case. In addition, the TGI in test [7], in test [8], in [9] and in test [10] was greater than 50 µg/mL in each case.

`COc1ccccc1C(=O)N(Cc1ccccc1)c1ccc(Cl)c(C(=O)OC(C)C)c1`: the TGI is 78.7 µM in test [1]; 66.3 µM in test [2]; greater than 88.7 µM in test [3]; greater than 100 µM in [4]; 29 µM in test [5]; greater than 100 µM in test [6]. Moreover, the TGI in test [7] was greater than 100 µM; in test [8], greater than 100 µM; in [9], greater than 100 µM; in test [10], greater than 81 µM.

As for `COc1ccccc1NC(=O)C1=C(C)NC(C)=C(C(=O)Nc2ccccc2OC)C1c1ccco1`, the TGI was greater than 100 µM in [1]; 52.7 µM in test [2]; 43.4 µM in [3]; greater than 92 µM in test [4]; 76.1 µM in test [5]; greater than 100 µM in test [6]. The TGI is 47 µM in test [7], 20.7 µM in test [8], 31.9 µM in test [9] and greater than 38.4 µM in test [10].

Consider `COc1cc(NC2CCCCC2O)c2nc(-c3ccc(Cl)cc3)ccc2c1` (stereo unspecified), for which the GI50 was 4.9 µM in test [1]; 3 µM in test [2]; 12.2 µM in test [3]; 14.4 µM in test [4]; 3.66 µM in test [5]; 6.05 µM in [6]. In addition, the GI50 was 3.88 µM in [7], 10.5 µM in [8], 9.23 µM in [9] and 3.82 µM in test [10]. The TGI in test [1] is greater than 100 µM; in test [2] it was 46.6 µM; in test [3], greater than 100 µM; in test [4], greater than 100 µM; in test [5], 25 µM; in [6] it was greater than 100 µM. Further, the TGI in test [7] is greater than 100 µM; in [8], 51.4 µM; in test [9] it was 33.9 µM; in [10] it was 29.2 µM.

Consider `COc1cc2c3cc1Oc1c(OC)c(OC)cc4c1C(Cc1ccc(O)c(c1)Oc1ccc(cc1)CC3N(C)CC2)N(C)CC4` (stereo unspecified), for which the GI50 was 15 µM in [1]; 12.1 µM in [2]; 5.99 µM in test [3]; 8.49 µM in [4]; 11.8 µM in test [5]; 14.4 µM in test [6]. Also, the GI50 in [7] is 11.5 µM; in [8] it was 2.16 µM; in test [10], 14.2 µM. Also, the TGI is 75.7 µM and 36.2 µM in test [1]; > 100 µM and 54.9 µM in test [2]; > 100 µM and 18.9 µM in [3]; > 100 µM and 23.1 µM in test [4]; 40.1 µM in test [5]; 81.7 µM and 48.8 µM in test [6]. For the same molecule, the TGI in [7] was 69.4 µM and 28.9 µM; in test [9], greater than 100 µM; in test [10], 65.8 µM and 31.8 µM.

With `C[As](C)SC1OCC(O)C(O)C1O` (stereo unspecified), the GI50 in test [1] is 0.158 µM; in test [2], 0.0825 µM; in test [3] it was 1.43 µM; in [4] it was 0.387 µM; in test [5], 0.0537 µM; in test [6] it was 1.63 µM. For the same molecule, the GI50 is 0.46 µM in [7], 0.111 µM in test [8], 0.128 µM in [9] and 0.387 µM in test [10]. Moreover, the TGI is 4.74 µM in test [1]; 0.395 µM in test [2]; 7.22 µM in test [3]; 3.33 µM in test [4]; 0.604 µM in [5]; greater than 33.7 µM in test [6]. Further, the TGI in test [7] was 1.71 µM; in test [8] it was 0.595 µM; in test [9], 0.925 µM; in test [10] it was 3.83 µM.

Turning to `CC1OC(OC2C(O)C(O)C(O)C(O)C2O)C(N)CC1N=C(N)C(=O)O` (stereo unspecified), the TGI in test [1], in test [2], in test [3], in [4], in [5] and in test [6] was greater than 100 µM each time. For the same molecule, the TGI in test [7], in test [8], in test [9] and in [10] was greater than 100 µM in each case.

In the case of `O=C(O)c1ccccc1NCn1c(=S)sc2ccccc21`, the TGI in [1] was greater than 100 µM; in [2], greater than 100 µM; in test [3], greater than 100 µM; in test [4], greater than 100 µM; in [5] it was 95.4 µM; in test [6], greater than 100 µM. In addition, the TGI in [7] was greater than 100 µM; in test [8], 48.9 µM; in [9] it was greater than 100 µM; in test [10] it was greater than 100 µM.

On to `COc1ccc2c(c1OC)O/C(=C\c1ncc([N+](=O)[O-])n1C)C2=O`, for which the GI50 in test [1] is greater than 70.9 µM; in [2], 0.266 µM; in test [3], 0.788 µM; in [4] it was 0.623 µM; in [5] it was 3.07 µM; in test [6], 2.59 µM. Further, the GI50 in [7] was 2.95 µM; in test [8], 3.1 µM; in test [9], 0.591 µM; in test [10], 2.79 µM. Further, the TGI in test [1] is greater than 100 µM; in test [3] it was 2.67 µM; in test [4], 3.43 µM; in [5] it was 16.4 µM; in [6], 12.1 µM; in test [7] it was 13.9 µM. The TGI in test [8] turned out to be 10.2 µM; in test [9] it was 2.52 µM; in [10], 10.3 µM.

In the case of `CCn1c(-c2nonc2N)nc2cnc(Oc3cccc(NC(=O)c4ccc(N(C)C)cc4)c3)cc21`, the GI50 in test [1] is 9.62 µM; in test [2] it was 13.6 µM; in test [3], greater than 25 µM; in test [4] it was greater than 25 µM; in test [5], greater than 25 µM; in test [6] it was 2.12 µM. Further, the GI50 was greater than 25 µM in test [7], 18.7 µM in test [8], greater than 25 µM in test [9] and greater than 25 µM in test [10]. The TGI in test [1], in test [2], in test [3], in [4], in test [5] and in test [6] was greater than 25 µM each time. Also, the TGI in test [7], in test [8], in test [9] and in [10] was greater than 25 µM throughout.

Turning to `Cn1c(=O)c2c(nc(N/N=C/c3ccccc3C(=O)O)n2C)n(C)c1=O`, the TGI in test [1], in test [2], in test [3], in test [4], in [5] and in test [6] was greater than 100 µM throughout. The TGI in [7], in test [8], in test [9] and in test [10] was greater than 100 µM in each case.

In the case of `Cc1nc2ccccc2c(=O)n1/N=C(\N=Nc1cc(Cl)ccc1Cl)c1ccccc1`, the TGI in test [1] was greater than 100 µM; in test [2], greater than 100 µM; in test [3], 66 µM; in test [4] it was greater than 100 µM; in test [5] it was greater than 100 µM; in [6], greater than 100 µM. Moreover, the TGI in [7] was greater than 75.2 µM; in test [8] it was greater than 100 µM; in test [9], greater than 100 µM; in test [10] it was 25.8 µM.

Take `Clc1ccc(CN2CCCN(Cc3ccc(Cl)cc3)C2c2cc3ccccc3c3ccccc23)cc1`: the TGI in test [1] is greater than 100 µM; in [2], greater than 100 µM; in test [3], 56.1 µM; in [4], 54.5 µM; in test [5] it was greater than 100 µM; in test [6], greater than 100 µM. The TGI in test [7] was greater than 100 µM; in test [8], greater than 100 µM; in test [9] it was 34.2 µM; in test [10], greater than 100 µM.

Take `COc1cc2c3c(n(CCCNCCCNCCCN)c(=O)c2cc1OC)-c1cc2c(cc1C3=O)OCO2`: the GI50 in [1] was greater than 100 µM; in test [2] it was 21.2 µM; in [3], greater than 100 µM; in test [4] it was greater than 100 µM; in test [5] it was greater than 100 µM; in test [6], greater than 100 µM. Also, the GI50 is 46.2 µM in [7], greater than 100 µM in test [8], 52 µM in test [9] and greater than 100 µM in test [10]. Besides, the TGI in [1], in test [2], in test [3], in test [4], in test [5] and in test [6] was greater than 100 µM in each case. The TGI in [7], in test [8], in test [9] and in test [10] was greater than 100 µM in each case.

For `O=c1cccc(Cl)[nH]1`, the TGI in test [1], in [2], in test [3], in test [4], in test [5] and in [6] was greater than 100 µM each time. For the same molecule, the TGI in [7], in test [8], in test [9] and in test [10] was greater than 100 µM each time.

As to `COCC(C(=O)OC1C/C=C/C=C/C(=O)OC(C(C)C(O)C(C)CCC(OC(=O)C(C)N(C)C)C(C)C(OC(C)=O)C(C)/C=C/N(C)C=O)C/C=C/C(OC)CC(C)C/C=C(\C)C(OC)CCC(C)C(O)C1C)N(C)C` (stereo unspecified), the GI50 is 0.0479 µM in test [1]; less than 0.0001 µM in test [2]; less than 0.0001 µM in test [3]; less than 0.0001 µM in test [4]; less than 0.0001 µM in [5]; less than 0.0001 µM in test [6]. Also, the GI50 in [7], in test [8], in test [9] and in test [10] was less than 0.0001 µM each time. The TGI in [1] is greater than 1 µM; in [2], greater than 0.201 µM; in test [3] it was greater than 1 µM; in test [4], 0.0358 µM; in test [5] it was 0.0077 µM; in [6] it was 0.156 µM. The TGI in test [7] was 0.154 µM; in test [8], less than 0.0001 µM; in [9], 0.00697 µM; in test [10], less than 0.0001 µM.

Values taken from PubChem BioAssay (NCI).
